From patent publication US9802937B2, “Substituted pyrazolo{4,3-D}pyrimidines as kinase inhibitors” (ORIGENIS GMBH, priority 2011, dated 2017)

Tests used:
LRRK2 = LRRK2 (Homo sapiens, UniProt Q5S007); assay: LRRK2-LRRK2 G2019S-Assay (LanthaScreen Eu Kinase Binding Assay); conditions: 5 nM LRRK2 or their mutants, 10 nM tracer 236, RT 1 h; read-out: LRRK2 Activities: IC50
Method in brief: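 Kinase (wild type or mutant, 5 nM) mixed with Eu-anti-GST antibody (2 nM), then 10 nM Alexa Fluor 647 tracer 236 added. After 1 h at room temperature, the acceptor/donor (665/615 nm) FRET ratio was measured. IC50 was fitted from concentration–ratio curves.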

SYK kinase = molecular target: T1, SYK kinase (Homo sapiens, UniProt P43405); assay: SYK Assay (OMNIA KINASE ASSAY, SOX peptide fluorescence); format: biochemical; conditions: apparent Ki calculated from the IC50 using the Cheng-Prusoff equation; 1 mM ATP, 30° C.; read-out: SYK Activities: Ki
T1 construct: purchased Invitrogen, Carlsbad
Method in brief: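 Apparent Ki values are derived by Cheng-Prusoff from IC50s of sigmoidal fits of reaction rate against compound concentration. Rates come from chelation-enhanced SOX fluorescence (λex 360/λem 485 nm, read every 30 s over 30 min) as the kinase phosphorylates 10 µM Omnia Tyr 7 peptide at 30 °C, with 1 mM ATP and 0.2 mM DTT.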

Sequence of LRRK2 (Q5S007 970-2527 limits assumed): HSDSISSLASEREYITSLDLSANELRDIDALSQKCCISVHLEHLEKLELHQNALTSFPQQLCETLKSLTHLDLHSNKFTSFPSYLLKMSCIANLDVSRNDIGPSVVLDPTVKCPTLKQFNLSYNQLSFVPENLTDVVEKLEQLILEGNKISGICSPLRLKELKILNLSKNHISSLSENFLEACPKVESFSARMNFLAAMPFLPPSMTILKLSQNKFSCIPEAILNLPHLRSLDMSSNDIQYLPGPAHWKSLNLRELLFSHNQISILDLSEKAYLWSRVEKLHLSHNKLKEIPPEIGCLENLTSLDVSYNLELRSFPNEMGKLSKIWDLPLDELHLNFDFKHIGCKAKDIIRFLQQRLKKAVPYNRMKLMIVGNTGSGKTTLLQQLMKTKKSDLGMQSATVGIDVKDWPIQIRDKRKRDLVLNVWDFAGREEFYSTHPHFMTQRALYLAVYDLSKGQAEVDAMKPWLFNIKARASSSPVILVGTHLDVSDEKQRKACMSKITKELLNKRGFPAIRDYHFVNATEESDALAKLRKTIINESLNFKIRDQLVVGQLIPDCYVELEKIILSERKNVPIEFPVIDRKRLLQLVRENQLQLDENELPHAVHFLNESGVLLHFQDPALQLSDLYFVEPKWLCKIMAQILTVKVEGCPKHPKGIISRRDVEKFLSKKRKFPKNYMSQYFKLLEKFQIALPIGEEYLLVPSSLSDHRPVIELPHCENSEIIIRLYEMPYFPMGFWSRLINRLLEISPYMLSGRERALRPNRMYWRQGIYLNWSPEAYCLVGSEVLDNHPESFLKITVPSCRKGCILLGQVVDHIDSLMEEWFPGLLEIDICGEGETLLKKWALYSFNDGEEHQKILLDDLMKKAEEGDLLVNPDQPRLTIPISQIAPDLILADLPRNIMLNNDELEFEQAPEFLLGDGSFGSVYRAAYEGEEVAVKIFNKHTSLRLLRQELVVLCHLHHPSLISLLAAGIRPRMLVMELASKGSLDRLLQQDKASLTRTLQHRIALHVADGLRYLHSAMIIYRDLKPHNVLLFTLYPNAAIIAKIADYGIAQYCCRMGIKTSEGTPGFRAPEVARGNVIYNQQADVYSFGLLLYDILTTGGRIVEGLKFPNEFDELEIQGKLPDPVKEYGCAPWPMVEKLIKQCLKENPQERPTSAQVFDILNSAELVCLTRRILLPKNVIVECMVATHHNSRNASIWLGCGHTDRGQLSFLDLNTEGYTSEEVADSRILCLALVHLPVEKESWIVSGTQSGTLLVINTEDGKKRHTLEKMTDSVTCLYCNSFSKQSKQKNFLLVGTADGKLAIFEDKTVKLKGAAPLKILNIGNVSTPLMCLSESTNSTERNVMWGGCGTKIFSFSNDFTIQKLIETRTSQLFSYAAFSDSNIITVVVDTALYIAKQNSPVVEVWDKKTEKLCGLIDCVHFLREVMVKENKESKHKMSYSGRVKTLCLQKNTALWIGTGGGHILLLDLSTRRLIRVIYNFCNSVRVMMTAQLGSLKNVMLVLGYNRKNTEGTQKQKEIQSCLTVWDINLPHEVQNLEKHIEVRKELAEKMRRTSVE

Row | IC50 (LRRK2) [nM] | Ki (SYK kinase) [nM] | Compound
1 | 100 to 1000 | < 10 | Fc1ccccc1-c1nc(Nc2ccc(N3CCOCC3)cc2)c2[nH]ncc2n1 [Example #233, 5-(2-fluorophenyl)-N-(4-morpholinophenyl)-1H-pyrazolo[4,3-d]pyrimidin-7-amine]
2 | 10 to 100 | 10 to 100 | COc1ccc(Nc2nc(-c3nccs3)nc3cn[nH]c23)cc1OC [Example #185, N-(3,4-dimethoxyphenyl)-5-(thiazol-2-yl)-1H-pyrazolo[4,3-d]pyrimidin-7-amine]
3 | 100 to 1000 | 10 to 100 | O=C(c1ccc(Nc2nc(-c3ccsc3)nc3cn[nH]c23)cc1)N1CCOCC1 [Example #157, morpholino(4-((5-(thiophen-3-yl)-1H-pyrazolo[4,3-d]pyrimidin-7-yl)amino)phenyl)methanone]
4 | 100 to 1000 | 10 to 100 | c1cc(N2CCOCC2)ccc1Nc1nc(-c2ccc3c(c2)NCCO3)nc2cn[nH]c12 [Example #301, 5-(3,4-dihydro-2H-benzo[b][1,4]oxazin-6-yl)-N-(4-morpholinophenyl)-1H-pyrazolo[4,3-d]pyrimidin-7-amine]
5 | 10 to 100 | < 10 | c1cc(-c2nc(Nc3ccc4c(c3)NCCO4)c3[nH]ncc3n2)cs1 [Example #84, N-(5-(thiophen-3-yl)-1H-pyrazolo[4,3-d]pyrimidin-7-yl)-3,4-dihydro-2H-benzo[b][1,4]oxazin-6-amine]
6 | 10 to 100 | 10 to 100 | c1csc(-c2nc(Nc3ccc(N4CCSCC4)cc3)c3[nH]ncc3n2)c1 [Example #136, N-(4-thiomorpholinophenyl)-5-(thiophen-2-yl)-1H-pyrazolo[4,3-d]pyrimidin-7-amine]
7 | < 10 | < 10 | O=C1CCc2ccc(Nc3nc(-c4ccc5cn[nH]c5c4)nc4cn[nH]c34)cc2N1 [Example #269, 7-((5-(1H-indazol-6-yl)-1H-pyrazolo[4,3-d]pyrimidin-7-yl)amino)-3,4-dihydroquinolin-2(1H)-one]
8 | 10 to 100 | 10 to 100 | c1cc(-c2nc(Nc3cc(C4CC4)[nH]n3)c3[nH]ncc3n2)cs1 [Example #77, N-(5-cyclopropyl-1H-pyrazol-3-yl)-5-(thiophen-3-yl)-1H-pyrazolo[4,3-d]pyrimidin-7-amine]
9 | 100 to 1000 | < 10 | COc1ccc(Nc2nc(-c3ncco3)nc3cn[nH]c23)cc1OC [Example #205, N-(3,4-dimethoxyphenyl)-5-(oxazol-2-yl)-1H-pyrazolo[4,3-d]pyrimidin-7-amine]
10 | 100 to 1000 | 10 to 100 | Fc1cccc(F)c1-c1nc(Nc2ccc(N3CCOCC3)cc2)c2[nH]ncc2n1 [Example #282, 5-(2,6-difluorophenyl)-N-(4-morpholinophenyl)-1H-pyrazolo[4,3-d]pyrimidin-7-amine]
11 | 100 to 1000 | 10 to 100 | COc1ccc(Nc2nc(-c3ccc(N4CCCC4)nc3)nc3cn[nH]c23)cc1OC [Example #32, N-(3,4-dimethoxyphenyl)-5-(6-(pyrrolidin-1-yl)pyridin-3-yl)-1H-pyrazolo[4,3-d]pyrimidin-7-amine]
12 | 10 to 100 | < 10 | O=C1CCc2ccc(Nc3nc(-c4cscn4)nc4cn[nH]c34)cc2N1 [Example #206, 7-((5-(thiazol-4-yl)-1H-pyrazolo[4,3-d]pyrimidin-7-yl)amino)-3,4-dihydroquinolin-2(1H)-one]
13 | 100 to 1000 | 10 to 100 | CN(C)c1ccc(Nc2nc(-c3ccncc3)nc3cn[nH]c23)cc1 [Example #17, N1,N1-dimethyl-N4-(5-(pyridin-4-yl)-1H-pyrazolo[4,3-d]pyrimidin-7-yl)benzene-1,4-diamine]
14 | 100 to 1000 | 10 to 100 | COc1ccc(Nc2nc(-c3ccccc3OC)nc3cn[nH]c23)cc1OC [Example #109, N-(3,4-dimethoxyphenyl)-5-(2-methoxyphenyl)-1H-pyrazolo[4,3-d]pyrimidin-7-amine]
15 | 100 to 1000 | 10 to 100 | CN1CCC(c2nc(Nc3ccc4[nH]ncc4c3)c3[nH]ncc3n2)CC1 [Example #50, N-(1H-indazol-5-yl)-5-(1-methylpiperidin-4-yl)-1H-pyrazolo[4,3-d]pyrimidin-7-amine]
